Test results from PubChem BioAssay AID1963863 (Molecular Pharmacology Branch, DTP, NCI, 2024).

Test system: 931267-113-T-J1-PDC KRAS spheroid with HUVEC/MSC, viability
Experiment: Anticancer human tumor 931267-113-T-J1-PDC patient-derived colon adenocarcinoma cell line growth inhibition [KRAS2]
Conditions: for IC50: curve of first compound; for viability, T/C: stronger effect = lower value
Summary of the method: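 KRAS-mutant tumor cells were grown as spheroids with HUVEC endothelial cells and human MSCs as stroma. Targeted agents were tested alone and with KRAS pathway inhibitors. Doses started at or near clinical Cmax, or 10 microM, descending half-log.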

[1] = second compound 0.0316 µM, first compound 0.00316 µM
[2] = second compound 0.0316 µM, first compound 0.01 µM
[3] = second compound 0.0316 µM, first compound 0.0316 µM
[4] = second compound 0.0316 µM, first compound 0.1 µM
[5] = second compound 0.0316 µM, first compound 0.316 µM
[6] = second compound 0.0316 µM, first compound 1 µM
[7] = second compound 0.1 µM, first compound 0.00316 µM
[8] = second compound 0.1 µM, first compound 0.01 µM
[9] = second compound 0.1 µM, first compound 0.0316 µM
[10] = second compound 0.1 µM, first compound 0.1 µM
[11] = second compound 0.1 µM, first compound 0.316 µM
[12] = second compound 0.1 µM, first compound 1 µM
[13] = second compound 0.316 µM, first compound 0.00316 µM
[14] = second compound 0.316 µM, first compound 0.01 µM
[15] = second compound 0.316 µM, first compound 0.0316 µM
[16] = second compound 0.316 µM, first compound 0.1 µM
[17] = second compound 0.316 µM, first compound 0.316 µM
[18] = second compound 0.316 µM, first compound 1 µM
[19] = second compound 1 µM, first compound 0.00316 µM
[20] = second compound 1 µM, first compound 0.01 µM
[21] = second compound 1 µM, first compound 0.0316 µM
[22] = second compound 1 µM, first compound 0.1 µM
[23] = second compound 1 µM, first compound 0.316 µM
[24] = second compound 1 µM, first compound 1 µM
[25] = second compound 3.16 µM, first compound 0.00316 µM
[26] = second compound 3.16 µM, first compound 0.01 µM
[27] = second compound 3.16 µM, first compound 0.0316 µM
[28] = second compound 3.16 µM, first compound 0.1 µM
[29] = second compound 3.16 µM, first compound 0.316 µM
[30] = second compound 3.16 µM, first compound 1 µM
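Further: compound exposure lasted 7 days before the readout.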
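Wherever viability, T/C is given: 100% = DMSO vehicle control viability.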

Row | SMILES | IC50 (second compound 0.0316 µM) | IC50 (second compound 0.1 µM) | IC50 (second compound 0.316 µM) | IC50 (second compound 1 µM) | IC50 (second compound 3.16 µM) | viability, T/C [1] | viability, T/C [2] | viability, T/C [3] | viability, T/C [4] | viability, T/C [5] | viability, T/C [6] | viability, T/C [7] | viability, T/C [9] | viability, T/C [10] | viability, T/C [15] | viability, T/C [16] | viability, T/C [21] | viability, T/C [22] | viability, T/C [27] | viability, T/C [28] | other results
1 | CCN1CCN(Cc2ccc(Nc3ncc(F)c(-c4cc(F)c5nc(C)n(C(C)C)c5c4)n3)nc2)CC1 + C=CC(=O)N1CCN(c2nc(OCC3CCCN3C)nc3c2CCN(c2cccc4cccc(C)c24)C3)CC1CC#N | > 1000 nM | 549 nM | > 1000 nM | 734 nM | < 3.16 nM | 108% | 86% | 70.7% | 67.8% | 65.7% | 54% | 83.8% | 68.2% | 67.4% | 64.3% | 60% | 77.3% | 82.4% | 0.2% | 0.23% | viability, T/C [8]: 72.2%; viability, T/C [11]: 61.8%; viability, T/C [12]: 39.7%; viability, T/C [13]: 93.7%; viability, T/C [14]: 84.2%; viability, T/C [17]: 64.6%; viability, T/C [18]: 48.6%; viability, T/C [19]: 73.8%; viability, T/C [20]: 74.2%; viability, T/C [23]: 61.2%; viability, T/C [24]: 45.9%; viability, T/C [25]: 0.66%; viability, T/C [26]: 2.55%; viability, T/C [29]: 0.3%; viability, T/C [30]: 0.21%
2 | CCNC(=O)CC1N=C(c2ccc(Cl)cc2)c2cc(OC)ccc2-n2c(C)nnc21 (stereo not given) + C=CC(=O)N1CCN(c2nc(OCC3CCCN3C)nc3c2CCN(c2cccc4cccc(C)c24)C3)CC1CC#N | 3970 nM | 2560 nM | 1430 nM | 1030 nM | < 31.6 nM | – | – | 92% | 80.3% | 80.2% | 51.9% | – | 92.5% | 81.4% | 72.4% | 74.7% | 82.1% | 69.1% | 0.31% | 0.3% | viability, T/C (second compound 0.0316 µM, first compound 3.16 µM): 61%; viability, T/C (second compound 0.0316 µM, first compound 10 µM): 38.1%; viability, T/C [11]: 70.1%; viability, T/C [12]: 60.6%; viability, T/C (second compound 0.1 µM, first compound 3.16 µM): 45.4%; viability, T/C (second compound 0.1 µM, first compound 10 µM): 41.6%; viability, T/C [17]: 66.5%; viability, T/C [18]: 52.9%; viability, T/C (second compound 0.316 µM, first compound 3.16 µM): 43.7%; viability, T/C (second compound 0.316 µM, first compound 10 µM): 38.9%; viability, T/C [23]: 61.1%; viability, T/C [24]: 51.1%; viability, T/C (second compound 1 µM, first compound 3.16 µM): 39.6%; viability, T/C (second compound 1 µM, first compound 10 µM): 31.5%; viability, T/C [29]: 0.26%; viability, T/C [30]: 0.17%; viability, T/C (second compound 3.16 µM, first compound 3.16 µM): 0.16%; viability, T/C (second compound 3.16 µM, first compound 10 µM): 0.17%
3 | Cn1ncnc1[C@H]1c2n[nH]c(=O)c3cc(F)cc(c23)N[C@@H]1c1ccc(F)cc1 + C=CC(=O)N1CCN(c2nc(OCC3CCCN3C)nc3c2CCN(c2cccc4cccc(C)c24)C3)CC1CC#N | > 100 nM | > 100 nM | > 100 nM | > 100 nM | < 0.316 nM | 90% | 75.5% | 77.2% | 80.7% | – | – | 69.8% | 78.2% | 67.3% | 69.8% | 66.3% | 68.8% | 69.9% | 0.64% | 8.16% | viability, T/C (second compound 0.0316 µM, first compound 0.000316 µM): 118%; viability, T/C (second compound 0.0316 µM, first compound 0.001 µM): 89.7%; viability, T/C (second compound 0.1 µM, first compound 0.000316 µM): 102%; viability, T/C (second compound 0.1 µM, first compound 0.001 µM): 90.9%; viability, T/C [8]: 77.9%; viability, T/C (second compound 0.316 µM, first compound 0.000316 µM): 89.9%; viability, T/C (second compound 0.316 µM, first compound 0.001 µM): 66.3%; viability, T/C [13]: 89.9%; viability, T/C [14]: 86%; viability, T/C (second compound 1 µM, first compound 0.000316 µM): 76%; viability, T/C (second compound 1 µM, first compound 0.001 µM): 76.5%; viability, T/C [19]: 68.5%; viability, T/C [20]: 80.8%; viability, T/C (second compound 3.16 µM, first compound 0.000316 µM): 1.48%; viability, T/C (second compound 3.16 µM, first compound 0.001 µM): 4.65%; viability, T/C [25]: 3.13%; viability, T/C [26]: 15.2%
